The values below are quoted from earlier work in patent US20230399688A1, “COMPOSITIONS AND M[…] FOR COUPLED CELL-FREE TRANSCRIPTION-T[…] PROTEIN SYNTHESIS AND METHODS FOR USING THEM” (GENOMATICA, INC., priority 2015, published 2023).

The data set has as its system human cancer cell lines. The following applies: in comparison to the parent drug, MTM.

As to `CO[C@@H]([C@@H]1Cc2cc3cc(O[C@H]4C[C@@H](O[C@H]5C[C@@H](O)[C@H](O)[C@@H](C)O5)[C@H](O)[C@@H](C)O4)c(C)c(O)c3c(O)c2C(=O)[C@H]1O[C@H]1C[C@@H](O[C@H]2C[C@@H](O[C@H]3C[C@](C)(O)[C@H](O)[C@@H](C)O3)[C@@H](O)[C@@H](C)O2)[C@H](O)[C@@H](C)O1)[C@@H](O)C(C)=O` [MTM-SK, mithramycin SK], the therapeutic index result is reported as “improved therapeutic index”.
